For series [1] the following is noted: cited from earlier work.
The target in the next series is T1, topoisomerase I (Homo sapiens, UniProt P11387).
T1 sequence (P11387 1-765): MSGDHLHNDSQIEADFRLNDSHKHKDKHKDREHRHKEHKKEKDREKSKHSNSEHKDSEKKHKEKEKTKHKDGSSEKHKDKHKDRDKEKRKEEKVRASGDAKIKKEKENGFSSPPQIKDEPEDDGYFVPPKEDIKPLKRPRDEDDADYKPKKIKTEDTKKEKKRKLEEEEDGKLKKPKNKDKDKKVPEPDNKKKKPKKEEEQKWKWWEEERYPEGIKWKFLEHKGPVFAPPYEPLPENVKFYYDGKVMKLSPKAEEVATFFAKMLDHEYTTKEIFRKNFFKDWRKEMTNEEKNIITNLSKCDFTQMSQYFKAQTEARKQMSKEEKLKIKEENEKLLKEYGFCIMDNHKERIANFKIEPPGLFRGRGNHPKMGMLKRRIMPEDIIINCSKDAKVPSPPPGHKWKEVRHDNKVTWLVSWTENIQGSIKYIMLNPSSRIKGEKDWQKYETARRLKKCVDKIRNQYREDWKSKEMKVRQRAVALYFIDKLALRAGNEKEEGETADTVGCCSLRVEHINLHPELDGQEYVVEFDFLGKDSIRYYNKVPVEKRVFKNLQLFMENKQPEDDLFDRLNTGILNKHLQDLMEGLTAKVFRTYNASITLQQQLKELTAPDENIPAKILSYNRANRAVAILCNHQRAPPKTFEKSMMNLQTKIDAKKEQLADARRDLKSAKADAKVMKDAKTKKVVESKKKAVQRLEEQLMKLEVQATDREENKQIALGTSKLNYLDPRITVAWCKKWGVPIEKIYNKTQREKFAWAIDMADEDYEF
The following applies: cited from earlier work.

Series [2] in a line: Systemic delivery of irinotecan and SN-38 after GRDS tablet versus i.v. in the beagle dog. The conditions noted are these: irinotecan in gastric retention dosage form, oral.
Method: A plot of plasma concentration against time allows calculation of the area under the curves and the relative bioavailability of the various forms of the drug.
Prior to the study, an adequate amount (5-10 ml) of whole blood is drawn from each dog. The blood is used to prepare the standard calibration reference curve. At the study, the foreleg (right or left, as deemed appropriate by the animal handler), is shaved using an electric shaver, and the area cleansed with a chlorhexidine swab. A permanent in-dwelling polyethylene catheter is inserted using a 23 gauge needle in the cephalic vein in the foreleg of each dog and taped in place to allow for periodic blood sampling over 12 hours. […]
At each time point, 2.0 ml blood is removed by syringe and then placed into a pre-labeled heparinized test tube. […] The concentration of the components are measured using literature HPLC methods.
The dogs are fasted overnight for a period of at least 12 hours at which time they receive a single mixed meal of solid food and liquid nutrients. 250 grams of bite-size commercial dog chow (Bonzo Feed®) are measured and placed in a feeding dish. […] The food remaining in the dish is measured and the difference from the original 250 grams is recorded as the amount of food consumed. […]
Two hours after the meal, the dog is dosed with the test tablet. […] The methanol samples are analyzed by HPLC. […]
Series [3] can be described thus: Relative oral, non-gastric retention bioavailability of irinotecan and SN-38 derived from literature. The format is in vivo. The following applies: human, blood (bloodstream); oral non-gastric retention relative to intravenous; read-out: Calculated Relative Bioavailabilty of Lactone [formula].
From the text: Quantity “A” is the total area under the bloodstream concentration curve over time.
ATotal=ALactone+ACarboxylate is the sum of the areas under the curve of lactone and carboxylate forms of the species.

For `CCc1c2c(nc3ccc(O)cc13)-c1cc3c(c(=O)n1C2)COC(=O)[C@]3(O)CC` [SN-38, 7-ethyl-10-hydroxycamptothecin], the “[formula] ratio of lactone AUC to total AUC, intravenous” value in series [1] (irinotecan given intravenously) is 0.50. Besides, the “[formula] overall delivery to the bloodstream, total AUC oral relative to intravenous” value in series [1] (irinotecan given orally, conventional non-gastric retention, vs IV, lactone + carboxylate) is given as 0.16. The “[formula] ratio absorbed in the lactone form (lactone AUC / total AUC), oral” value in series [1] (irinotecan given orally, conventional non-gastric retention) is given as 0.73. Besides, the “Potency as inhibitor of topoisomerase I relative to irinotecan” value on topoisomerase I is given as “approximately a thousand times more potent”. Further, the “Ratio absorbed in the lactone form [formula]” value in series [2] is 0.9. For the same molecule, the “Overall delivery to the bloodstream [formula], gastric retention relative to intravenous” value in series [2] (vs IV) amounted to 0.4.

For the molecule `CCc1c2c(nc3ccc(OC(=O)N4CCC(N5CCCCC5)CC4)cc13)-c1cc3c(c(=O)n1C2)COC(=O)[C@]3(O)CC` [Irinotecan], the bioavailability in series [3] was 12%.

The values above are taken from patent publication US6881420B2 (Teva Pharmaceutical Industries Ltd., priority 2000, dated 2005).
